{"source": "patent US20220281930A1", "about": "“COMPOSITIONS AND METHODS FOR THE TREATMENT OF PATHOLOGICAL PAIN AND ITCH” (DUKE UNIVERSITY, priority 2019, published 2022)", "key": {"KCC2 promoter": {"test_system": "KCC2 promoter", "assay": "KCC2-LUC luciferase primary screen in primary cortical neurons", "type": "cell-based, mouse", "details": "Natural Compounds; rank score; 100 nM, 48 h", "procedure": "Cytosine arabinoside ([…]) was added to cultures on the second day after seeding [2 d in vitro (DIV)] to inhibit the proliferation of non-neuronal cells. Cell suspension was plated at a density of 1×10^6 cells/ml onto 24-well tissue-culture dishes coated with poly-d-lysine.\nLUC activity was then determined for each compound. Culture supernatant was removed and cells were lysed with 150 μl lysis buffer (Targeting Systems CA, USA cat. CLR1). LUC activity was measured with a RedLuciferase Assay kit (Targeting Systems cat. FLAR) according to the manufacturer's instructions. A Veritas microplate luminometer was used to measure luminescence; for each treatment triplicates of 40 μl cell lysates (from each 24-well tissue-culture dish) were used and 25 μl substrate was injected per well. […] Relative Light units (RLU) for each treatment was derived from Light Units (compound treatment)/vehicle treatment (0.5% DMSO).\nThe primary screen encompassed three levels of LUC measurements. […] Each compound was ranked based on composite scores from primary and secondary screening."}, "KCC2": {"test_system": "KCC2", "assay": "Composite score from primary and secondary screening", "type": "cell-based, mouse", "details": "Natural Compounds", "procedure": "The primary screen encompassed three levels of LUC measurements. The first level of screening yielded a total of 137 compounds with cut-off RLU>125% LUC activity. These 137 compounds were subject to second round of screening, which was carried out in duplicate independent assays to yield the top 103 compounds sorted for highest RLU. The 103 compounds were then subjected to a third round of screening carried out in duplicate independent assays to yield the top 40 compounds which were again ranked. The best 22 of these 40 compounds (ranked for highest RLU activity) were subjected to secondary screening: Cultured neurons were treated with the 22 compounds; RT-qPCR and Clomeleon imaging methodologies (Yeo et al., 2009, J Neurosci 29:14652-14662) were used to determine effects of compounds on KCC2 mRNA expression and [Cl—]i, respectively. Each compound was ranked based on composite scores from primary and secondary screening.\nTo identify KCC2 gene expression enhancing compounds, cultured primary cortical neurons were cultured from KCC2-luciferase(LUC)-knockin (KCC2-LUCki) mice (Liedtke et al., 2013, Small 9:1066-1075; Yeo et al., 2013, Proc Natl Acad Sci USA 110:4315-4320) and used LUC metrics as readout for activity of the proximal KCC2 promoter (2.5 kB (Yeo et al., 2009, J Neurosci 29:14652-14662)), which drives LUC in this mouse transgenic line. A Z′ factor of 0.94 was obtained. This strategy will not select for long-range enhancers of KCC2 gene expression that act outside the 2.5 kB core KCC2 promoter. 1057 compounds, contained in two NCI libraries (FIG. 1), related to inhibition of growth of malignantly transformed cells were screened. Iterative screening followed by measurements of KCC2 mRNA (RT-qPCR) and intracellular chloride ([Cl—]i), using clomeleon chloride indicator protein (Kuner and Augustine, 2000, Neuron 27:447-459; Yeo et al., 2009, J Neurosci 29:14652-14662), led to decreasing numbers of confirmed and re-confirmed hits, and 4 “winner” compounds were selected (FIG. 1 and Table 3)."}, "[1]": {"test_system": "motor function and coordination of mice", "assay": "Rotarod assay", "type": "in vivo, mouse", "details": "10, 30 mg/kg i.p.; one-time exception high-dose day 7", "procedure": "For assessment in rotarod (RR), all animals received training prior to experiments; mice were placed on the RR apparatus set in an accelerating rotational speed mode (3-30 rpm, 300 s max) per trial. Following training, the average time to fall from the rotating cylinder over three trials was recorded as baseline latency (4-40 rpm, 300 s max/trial). Mice were injected daily with either vehicle or drug compounds before RR tests. Latency to fall was measured (4-40 rpm, 300 s max/trial (inter-trial interval is at least 15 min). The average latency to fall from the rod was recorded for each animal.\nWith these beneficial effects of KP on pathologic pain and itch, whether KP had undesirable effects on the CNS in terms of sedation, impairment of motor stamina, balance and coordination was assessed. […] Conditioned place preference was used to test whether KP (30 mg/kg; i.p.) can trigger brain reward mechanisms (Jackson et al., 2019, Psychopharmacology, 236(12):3593-3599; Sora et al., 1998, Proc Natl Acad Sci USA 95:7699-7704), and there were no such effects (FIG. 4F). […] In pathologic pain models, KP acts centrally to mediate analgesic effects, and thus relies on KCC2 chloride extrusion."}, "[2]": {"test_system": "beta-cat binding to KCC2 promoter", "assay": "ChIP with anti-beta-cat antibody at KCC2 promoter", "type": "cell-based, rat", "details": "KP-treated vs vehicle", "procedure": "ChIP assay was carried out as described previously (Yeo et al., 2009, J Neurosci 29:14652-14662; Yeo et al., 2013, Proc Natl Acad Sci USA 110:4315-4320). Primary cortical neurons (0.7×10^6) were used for each ChIP experiment. Cells were crosslinked with 1% formaldehyde for 30 min, washed twice with cold PBS, resuspended in lysis buffer [1% SDS, 10 mm EDTA, and 50 mm Tris-HCl, pH 8.0, with protease inhibitor cocktail (Roche)], and sonicated for 15 s pulses. The lysates were clarified by centrifugation at 10,000 rpm for 10 min at 4° C. in a microcentrifuge. One-tenth of the total lysate was used as input control of genomic DNA. Supernatants were collected and diluted in buffer (1% Triton X-100, 2 mm EDTA, 150 mm NaCl, 20 mm Tris-HCl, pH 8.0, and protease inhibitor cocktail) followed by immunoclearing with 1 mg of salmon sperm DNA, 10 ml of rabbit IgG, and 20 ml of protein A/G-Sepharose (Santa Cruz Biotechnology) for 1 h at 4° C. Immunoprecipitation was performed overnight at 4° C. with 2 mg of each specific antibody. Precipitates were washed sequentially for 10 min each in TSE1 buffer (0.1% SDS, 1% Triton X-100, 2 mm EDTA, 150 mm NaCl, and 20 mm Tris-HCl, pH 8.0), TSE2 (TSE1 with 500 mm NaCl), and TSE3 (0.25 m LiCl, 1% NP-40, 1% deoxycholate, 1 mm EDTA, and 10 mm Tris-HCl, pH 8.0). […]"}}}
{"molecule": "O=C1Cc2c([nH]c3ccc(Br)cc23)-c2ccccc2N1", "note": "[kenpaullone, 9-bromo-7,12-dihydro-indolo [3,2-d] [1]benzazepin-6(5H)-one]", "values": [{"measurement": "Luciferase Score (triplicates)", "setting": "KCC2 promoter", "result": 2}, {"measurement": "Top 2 hits", "setting": "KCC2", "result": "winner"}, {"measurement": "Total Score", "setting": "KCC2; sum of the three scores", "result": 6}, {"measurement": "elapsed time on the rotarod", "setting": "[1]", "result": "does not affect motor stamina and coordination"}, {"measurement": "binding of beta-cat to TCF site", "setting": "[2]", "result": "significantly increases binding"}]}
